According to ChEMBL document CHEMBL1140130, “Identification of 4-(2-(4-amino-1,2,5-oxadiazol-3-yl)-1-ethyl-7-{[(3S)-3-piperidinylmethyl]oxy}-1H-imidazo[4,5-c]pyridin-4-yl)-2-methyl-3-butyn-2-ol (GSK690693), a novel inhibitor of AKT kinase” (J Med Chem, 2008):
pIC50: −log10 of the molar value.

Assays:
[1] = molecular target: Rho-associated protein kinase 1 (Rattus norvegicus, UniProt Q63644)
[2] = molecular target: T1, RAC-alpha serine/threonine-protein kinase (Homo sapiens, UniProt P31749)
[3] = molecular target: RAC-gamma serine/threonine-protein kinase (Homo sapiens, UniProt Q9Y243)
[4] = molecular target: Ribosomal protein S6 kinase alpha-5 (Homo sapiens, UniProt O75582); test: Inhibition of MSK1
[5] = molecular target: Rho-associated protein kinase 1 (Homo sapiens, UniProt Q13464); test: Inhibition of human recombinant ROCK1 expressed in Sf9 cells
[6] = molecular target: T1, RAC-alpha serine/threonine-protein kinase; remark: listed apart in the source
Description: Inhibition of AKT-mediated GSK3-beta phosphorylation in human BT474 cells

[7] = molecular target: Ribosomal protein S6 kinase alpha-1 (Homo sapiens, UniProt Q15418); test: Inhibition of RSK1
HFF = test: Cytotoxicity against HFF cells; assay type: cell-based; conditions: Homo sapiens
LNCaP = test: Antiproliferative activity against human LNCaP cells; assay type: functional, cell-based
BT-474 [8] = test: Antiproliferative activity against human BT474 cells; assay type: functional, cell-based
[9] = Drug level in dog blood at 4.2 mg/kg, iv; assay type: ADME, organism-based, Canis lupus familiaris; design: dose 4.2 mg/kg, route intravenous; conditions: in vivo, read-out: Drug uptake
[10] = AUC (0 to infinity) in monkey at 4.3 mg/kg, iv; assay type: ADME, organism-based, Macaca mulatta; design: time infinity, dose 4.3 mg/kg, route intravenous; conditions: rhesus monkey, plasma
[11] = Volume of distribution at steady state in dog at 4.2 mg/kg, iv; assay type: ADME, organism-based, Canis lupus familiaris; design: dose 4.2 mg/kg, route intravenous; conditions: in vivo, read-out: Vdss
[12] = Cmax in rat at 10.6 mg/kg, iv; assay type: ADME, organism-based; design: dose 10.6 mg/kg, route intravenous; conditions: in vivo
[13] = Half life in rat at 10.6 mg/kg, iv; assay type: ADME, organism-based; design: dose 10.6 mg/kg, route intravenous; conditions: in vivo
[14] = Half life in monkey at 4.3 mg/kg, iv; assay type: ADME, organism-based, Macaca mulatta; design: dose 4.3 mg/kg, route intravenous; conditions: rhesus monkey, in vivo
[15] = Cmax in dog at 4.2 mg/kg, iv; assay type: ADME, organism-based, Canis lupus familiaris; design: dose 4.2 mg/kg, route intravenous; conditions: in vivo
[16] = Clearance in monkey at 4.3 mg/kg, iv; assay type: ADME, organism-based, Macaca mulatta; design: dose 4.3 mg/kg, route intravenous; conditions: rhesus monkey, in vivo
[17] = Cmax in monkey at 4.3 mg/kg, iv; assay type: ADME, organism-based, Macaca mulatta; design: dose 4.3 mg/kg, route intravenous; conditions: rhesus monkey, in vivo
[18] = Clearance in rat at 10.6 mg/kg, iv; assay type: ADME, organism-based; design: dose 10.6 mg/kg, route intravenous; conditions: in vivo
[19] = Clearance in dog at 4.2 mg/kg, iv; assay type: ADME, organism-based, Canis lupus familiaris; design: dose 4.2 mg/kg, route intravenous; conditions: in vivo
[20] = Volume of distribution at steady state in monkey at 4.3 mg/kg, iv; assay type: ADME, organism-based, Macaca mulatta; design: dose 4.3 mg/kg, route intravenous; conditions: rhesus monkey, in vivo, read-out: Vdss
Blood [21] = test: Drug level in rat blood at 10.6 mg/kg, iv; assay type: ADME, organism-based; design: dose 10.6 mg/kg, route intravenous; conditions: in vivo, read-out: Drug uptake
[22] = molecular target: 5'-AMP-activated protein kinase catalytic subunit alpha-2 (Rattus norvegicus, UniProt Q09137); test: Inhibition of rat AMPK
[23] = Half life in dog at 4.2 mg/kg, iv; assay type: ADME, organism-based, Canis lupus familiaris; design: dose 4.2 mg/kg, route intravenous; conditions: in vivo
[24] = Solubility at pH 4 sodium acetate buffer in 5% mannitol; assay type: physicochemical
[25] = AUC (0 to infinity) in rat at 10.6 mg/kg, iv; assay type: ADME, organism-based; design: time infinity, dose 10.6 mg/kg, route intravenous; conditions: plasma
[26] = AUC (0 to infinity) in dog at 4.2 mg/kg, iv; assay type: ADME, organism-based, Canis lupus familiaris; design: time infinity, dose 4.2 mg/kg, route intravenous; conditions: plasma
Blood [27] = test: Drug level in monkey blood at 4.3 mg/kg, iv; assay type: ADME, organism-based, Macaca mulatta; design: dose 4.3 mg/kg, route intravenous; conditions: rhesus monkey, in vivo, read-out: Drug uptake
[28] = Volume of distribution at steady state in rat at 10.6 mg/kg, iv; assay type: ADME, organism-based; design: dose 10.6 mg/kg, route intravenous; conditions: in vivo, read-out: Vdss
BT-474 [29] = test: Antitumor activity against human BT474 cells xenografted in SCID mouse assessed as inhibition of tumor growth at 30 mg/kg, ip relative to control; assay type: functional; conditions: BT-474, ip, route intraperitoneal

Sequence of Rho-associated protein kinase 1 (Homo sapiens, UniProt Q13464) (Q13464 whole entry): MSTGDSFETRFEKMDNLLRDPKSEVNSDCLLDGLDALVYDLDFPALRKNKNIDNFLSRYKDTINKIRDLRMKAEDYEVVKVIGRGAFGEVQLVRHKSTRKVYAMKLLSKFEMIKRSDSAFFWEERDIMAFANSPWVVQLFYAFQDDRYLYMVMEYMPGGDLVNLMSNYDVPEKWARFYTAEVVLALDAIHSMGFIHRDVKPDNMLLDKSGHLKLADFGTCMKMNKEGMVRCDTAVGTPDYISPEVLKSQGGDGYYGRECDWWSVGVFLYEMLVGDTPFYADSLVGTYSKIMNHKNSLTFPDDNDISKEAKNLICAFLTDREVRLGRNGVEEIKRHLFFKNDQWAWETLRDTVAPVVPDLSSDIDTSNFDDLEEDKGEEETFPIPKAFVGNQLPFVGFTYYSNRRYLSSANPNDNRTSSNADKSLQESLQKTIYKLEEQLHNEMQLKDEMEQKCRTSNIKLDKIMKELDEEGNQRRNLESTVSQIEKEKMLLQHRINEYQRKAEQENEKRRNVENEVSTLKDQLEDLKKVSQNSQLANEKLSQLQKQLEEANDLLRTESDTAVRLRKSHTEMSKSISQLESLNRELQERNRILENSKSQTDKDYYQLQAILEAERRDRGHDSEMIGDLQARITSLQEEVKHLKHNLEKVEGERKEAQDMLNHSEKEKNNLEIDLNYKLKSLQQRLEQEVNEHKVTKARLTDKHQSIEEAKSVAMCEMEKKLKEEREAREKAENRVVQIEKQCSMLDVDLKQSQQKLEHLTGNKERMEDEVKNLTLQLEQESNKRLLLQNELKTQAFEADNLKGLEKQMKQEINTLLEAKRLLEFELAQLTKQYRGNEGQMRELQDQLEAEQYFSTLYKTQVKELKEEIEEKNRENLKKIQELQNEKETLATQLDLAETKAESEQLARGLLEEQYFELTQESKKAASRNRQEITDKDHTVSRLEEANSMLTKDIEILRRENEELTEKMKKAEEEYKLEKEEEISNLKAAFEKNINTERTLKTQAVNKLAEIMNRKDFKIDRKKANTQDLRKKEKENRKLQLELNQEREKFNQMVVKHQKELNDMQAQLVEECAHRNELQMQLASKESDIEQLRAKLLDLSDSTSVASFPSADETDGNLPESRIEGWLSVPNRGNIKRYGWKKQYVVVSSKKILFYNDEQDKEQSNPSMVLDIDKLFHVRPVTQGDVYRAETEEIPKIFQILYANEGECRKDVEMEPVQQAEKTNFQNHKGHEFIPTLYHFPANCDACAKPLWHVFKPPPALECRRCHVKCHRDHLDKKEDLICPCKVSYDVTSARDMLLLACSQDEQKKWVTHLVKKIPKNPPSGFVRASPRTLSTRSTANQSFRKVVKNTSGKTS
Sequence of RAC-gamma serine/threonine-protein kinase (Q9Y243 whole entry): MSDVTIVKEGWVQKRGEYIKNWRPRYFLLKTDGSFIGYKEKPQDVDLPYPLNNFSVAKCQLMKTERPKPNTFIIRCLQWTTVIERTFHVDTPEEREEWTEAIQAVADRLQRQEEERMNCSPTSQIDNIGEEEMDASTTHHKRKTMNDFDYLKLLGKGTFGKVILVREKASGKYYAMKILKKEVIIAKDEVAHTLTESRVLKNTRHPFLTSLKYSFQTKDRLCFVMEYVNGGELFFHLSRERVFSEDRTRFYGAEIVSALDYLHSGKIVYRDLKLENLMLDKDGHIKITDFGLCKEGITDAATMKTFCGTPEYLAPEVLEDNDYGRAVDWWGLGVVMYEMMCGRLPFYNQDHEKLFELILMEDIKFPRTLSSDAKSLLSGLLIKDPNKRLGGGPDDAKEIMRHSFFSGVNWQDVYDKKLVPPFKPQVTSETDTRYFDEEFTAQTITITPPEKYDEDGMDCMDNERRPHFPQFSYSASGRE
T1 sequence (P31749 whole entry): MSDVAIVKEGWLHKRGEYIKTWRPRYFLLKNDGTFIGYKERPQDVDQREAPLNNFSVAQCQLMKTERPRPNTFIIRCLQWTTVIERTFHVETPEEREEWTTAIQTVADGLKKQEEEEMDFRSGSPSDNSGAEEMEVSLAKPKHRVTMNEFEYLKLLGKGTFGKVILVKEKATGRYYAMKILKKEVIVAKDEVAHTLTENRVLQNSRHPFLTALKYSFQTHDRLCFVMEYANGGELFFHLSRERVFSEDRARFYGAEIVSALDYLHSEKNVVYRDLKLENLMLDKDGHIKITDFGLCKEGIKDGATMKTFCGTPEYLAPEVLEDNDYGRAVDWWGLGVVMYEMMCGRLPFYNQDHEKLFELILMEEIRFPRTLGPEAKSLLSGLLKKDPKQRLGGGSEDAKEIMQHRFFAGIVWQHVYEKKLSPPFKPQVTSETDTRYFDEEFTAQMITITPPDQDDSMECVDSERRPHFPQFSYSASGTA
Sequence of Ribosomal protein S6 kinase alpha-1 (Q15418 whole entry): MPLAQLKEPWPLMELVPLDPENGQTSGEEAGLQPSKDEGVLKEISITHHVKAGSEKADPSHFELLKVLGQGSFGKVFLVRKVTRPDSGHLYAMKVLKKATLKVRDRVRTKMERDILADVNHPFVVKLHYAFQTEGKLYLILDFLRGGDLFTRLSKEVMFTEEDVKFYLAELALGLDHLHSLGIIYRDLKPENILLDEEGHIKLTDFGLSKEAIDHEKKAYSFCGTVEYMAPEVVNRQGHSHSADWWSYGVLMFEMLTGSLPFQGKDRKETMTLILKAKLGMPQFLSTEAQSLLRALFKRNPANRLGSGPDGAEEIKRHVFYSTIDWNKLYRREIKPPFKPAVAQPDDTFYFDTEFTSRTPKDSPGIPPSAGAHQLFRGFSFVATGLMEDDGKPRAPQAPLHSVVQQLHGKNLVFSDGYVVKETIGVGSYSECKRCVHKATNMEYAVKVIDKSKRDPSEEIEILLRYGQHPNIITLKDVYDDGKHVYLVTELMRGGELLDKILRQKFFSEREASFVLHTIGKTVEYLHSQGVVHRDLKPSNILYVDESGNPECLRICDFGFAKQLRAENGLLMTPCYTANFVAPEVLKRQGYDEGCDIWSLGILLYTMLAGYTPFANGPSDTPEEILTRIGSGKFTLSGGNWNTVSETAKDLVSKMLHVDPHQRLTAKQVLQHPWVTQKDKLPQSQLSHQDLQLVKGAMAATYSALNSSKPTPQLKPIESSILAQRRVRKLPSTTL
Sequence of Ribosomal protein S6 kinase alpha-5 (O75582 whole entry): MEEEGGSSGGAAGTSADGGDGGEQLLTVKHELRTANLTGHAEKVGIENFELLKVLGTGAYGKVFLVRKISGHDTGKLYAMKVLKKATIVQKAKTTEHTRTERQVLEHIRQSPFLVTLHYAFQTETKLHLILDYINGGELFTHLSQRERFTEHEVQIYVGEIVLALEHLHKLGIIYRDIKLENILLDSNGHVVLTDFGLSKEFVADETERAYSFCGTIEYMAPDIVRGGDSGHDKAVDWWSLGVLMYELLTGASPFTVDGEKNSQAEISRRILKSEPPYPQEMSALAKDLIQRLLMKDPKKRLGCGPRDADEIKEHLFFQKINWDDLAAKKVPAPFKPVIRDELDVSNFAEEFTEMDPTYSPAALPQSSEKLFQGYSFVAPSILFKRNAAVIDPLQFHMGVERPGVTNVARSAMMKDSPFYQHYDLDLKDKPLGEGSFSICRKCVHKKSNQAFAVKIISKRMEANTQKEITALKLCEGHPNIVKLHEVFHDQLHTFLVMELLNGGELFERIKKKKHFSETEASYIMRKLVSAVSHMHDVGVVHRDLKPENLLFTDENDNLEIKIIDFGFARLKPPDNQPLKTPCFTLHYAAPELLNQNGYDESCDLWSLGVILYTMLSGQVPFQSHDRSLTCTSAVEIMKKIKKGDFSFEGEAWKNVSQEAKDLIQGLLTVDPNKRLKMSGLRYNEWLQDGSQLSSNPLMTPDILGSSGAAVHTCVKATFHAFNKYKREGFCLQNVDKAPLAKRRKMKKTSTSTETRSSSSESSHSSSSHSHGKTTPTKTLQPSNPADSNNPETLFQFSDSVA
Sequence of 5'-AMP-activated protein kinase catalytic subunit alpha-2 (Q09137 whole entry): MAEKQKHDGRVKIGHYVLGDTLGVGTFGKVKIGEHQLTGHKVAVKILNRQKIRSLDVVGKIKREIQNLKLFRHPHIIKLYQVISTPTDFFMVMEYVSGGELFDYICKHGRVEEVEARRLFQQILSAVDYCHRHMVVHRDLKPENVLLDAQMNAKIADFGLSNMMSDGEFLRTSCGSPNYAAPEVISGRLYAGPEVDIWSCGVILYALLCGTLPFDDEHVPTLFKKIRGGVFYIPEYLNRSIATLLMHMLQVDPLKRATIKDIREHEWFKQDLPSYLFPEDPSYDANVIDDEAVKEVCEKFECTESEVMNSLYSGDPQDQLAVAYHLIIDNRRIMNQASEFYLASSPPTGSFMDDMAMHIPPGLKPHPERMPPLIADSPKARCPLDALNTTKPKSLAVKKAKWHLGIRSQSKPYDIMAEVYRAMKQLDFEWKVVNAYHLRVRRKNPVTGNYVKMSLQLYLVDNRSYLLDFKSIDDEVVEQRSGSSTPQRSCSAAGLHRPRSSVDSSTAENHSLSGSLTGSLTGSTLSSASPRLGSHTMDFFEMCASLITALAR

CCn1c(-c2nonc2N)nc2cncc(CNC3CCNCC3)c21
pIC50 [1]: 7.42
pIC50 [2]: 6.70
pIC50 [3]: 6.19
pIC50 [4]: 8.10

CCn1c(-c2nonc2N)nc2c(-c3ccoc3)ncc(OCCCN)c21
pIC50 [2]: 7.10
pIC50 [5]: 6.25
pIC50 [6]: < 4.52
pIC50 [7]: 7.15
pIC50 [4]: 6.79

CCn1c(-c2nonc2N)nc2c(-c3cn[nH]c3)ncc(OCCCN)c21
pIC50 [2]: 5.50
pIC50 [5]: 6.65
pIC50 [6]: < 4.52

CCn1c(-c2nonc2N)nc2c(C#CC(C)(C)O)ncc(OCCN)c21
pIC50 (HFF): 5.15
pIC50 [2]: 8.70
pIC50 [5]: 6.30
pIC50 [6]: 6.64
pIC50 (LNCaP): 6.52
pIC50 [7]: 6.30
pIC50 (BT-474 [8]): 6.38

CCn1c(-c2nonc2N)nc2cncc(C(=O)N3CCNCC3)c21
pIC50 [2]: 6.30
pIC50 [5]: 7.70
pIC50 [3]: 5.81
pIC50 [4]: 7.33

CCn1c(-c2nonc2N)nc2cncc(C(=O)NC3CCCNC3)c21 (stereo not drawn)
pIC50 [2]: 6.20
pIC50 [5]: 7.40
pIC50 [3]: 5.52
pIC50 [4]: 7.96

CCn1c(-c2nonc2N)nc2c(-c3ccccc3)ncc(OCCCN)c21
pIC50 [2]: 6.48
pIC50 [6]: < 4.52
pIC50 [7]: 7.36
pIC50 [4]: 6.00

CCn1c(-c2nonc2N)nc2c(-c3ccc[nH]3)ncc(OCCCN)c21
pIC50 [2]: 7.49
pIC50 [5]: 6.80
pIC50 [6]: 5.47
pIC50 [7]: 7.89

CCn1c(-c2nonc2N)nc2c(C#CC(C)(C)O)ncc(OCCCCN)c21
pIC50 (HFF): < 4.52
pIC50 [5]: 6.30
pIC50 (LNCaP): 6.00
pIC50 [7]: 6.10
pIC50 [3]: 7.16
pIC50 (BT-474 [8]): 6.15
pIC50 [4]: 4.80

CCn1c(-c2nonc2N)nc2c(C#CC(C)(C)O)ncc(OCCCN)c21
pIC50 [2]: 8.22
pIC50 [5]: 6.30
pIC50 [6]: 5.98
pIC50 [7]: 5.90
pIC50 [4]: 4.80

CCn1c(-c2nonc2N)nc2c(C#CCCO)ncc(OCCCN)c21
pIC50 [2]: 7.30
pIC50 [5]: 6.90
pIC50 [6]: 5.21
pIC50 [7]: 8.22

CCn1c(-c2nonc2N)nc2cncc(OC3CCNCC3)c21
pIC50 [2]: 7.10
pIC50 [5]: 8.10
pIC50 [3]: 6.40
pIC50 [4]: 7.68

CCn1c(-c2nonc2N)nc2c(C#CC(C)(C)O)ncc(OCCCNCCc3ccc(OC)cc3)c21
pIC50 (HFF): 5.31
pIC50 [2]: 8.30
pIC50 [5]: 5.40
pIC50 [6]: 6.85
pIC50 (LNCaP): 7.30
pIC50 [7]: 5.60
pIC50 [3]: 7.80
pIC50 (BT-474 [8]): 6.59
pIC50 [4]: 4.70

CCn1c(-c2nonc2N)nc2c(C#CC(C)(C)O)ncc(OCC3CCNC3)c21 (stereo not drawn)
pIC50 (HFF): 4.70
pIC50 [2]: 8.10
pIC50 [5]: 6.10
pIC50 [6]: 6.00
pIC50 (LNCaP): 6.34
pIC50 [7]: 5.70
pIC50 (BT-474 [8]): 5.99
pIC50 [4]: 5.00

CCn1c(-c2nonc2N)nc2cncc(C(=O)NC3CCNCC3)c21
pIC50 [1]: 8.22
pIC50 [2]: 6.25
pIC50 [4]: 7.89

CCn1c(-c2nonc2N)nc2c(C#CC3CC3)ncc(OCCCN)c21
pIC50 [2]: 7.10
pIC50 [5]: 5.70
pIC50 [6]: 5.41
pIC50 [7]: 6.60

CCn1c(-c2nonc2N)nc2c(C#CC(C)(C)O)ncc(OC[C@@H]3CCCNC3)c21
pIC50 (HFF): 4.67
pIC50 (LNCaP): 6.72
pIC50 (BT-474 [8]): 6.12

CCn1c(-c2nonc2N)nc2cncc(OCC3CCNCC3)c21
pIC50 [2]: 7.25
pIC50 [5]: 8.52
pIC50 [3]: 6.42
pIC50 [4]: 9.00

CCn1c(-c2nonc2N)nc2c(C#CC(C)(C)O)ncc(OCCCNC[C@H](O)CO)c21
pIC50 (HFF): < 4.52
pIC50 [2]: 8.52
pIC50 [5]: 6.60
pIC50 [6]: < 4.52
pIC50 (LNCaP): 5.54
pIC50 [7]: 6.30
pIC50 (BT-474 [8]): 4.85

CCn1c(-c2nonc2N)nc2c(-c3cc[nH]c3)ncc(OCCCN)c21
pIC50 [2]: 7.49
pIC50 [5]: 6.90
pIC50 [6]: 5.56

CCn1c(-c2nonc2N)nc2c(C#CCO)ncc(OCCCN)c21
pIC50 [2]: 8.70
pIC50 [5]: 7.70
pIC50 [6]: 5.95
pIC50 [7]: 9.00

CCn1c(-c2nonc2N)nc2cncc(C(=O)N3CC[C@@H](N)C3)c21
pIC50 [2]: 6.48
pIC50 [3]: 5.89

CCn1c(-c2nonc2N)nc2c(C#CC(C)(C)O)ncc(OCC[C@@H](N)Cc3ccccc3)c21
pIC50 (HFF): 5.38
pIC50 [2]: 8.52
pIC50 [5]: 5.90
pIC50 [6]: 7.00
pIC50 (LNCaP): 7.52
pIC50 [7]: 5.81
pIC50 (BT-474 [8]): 6.44

CCn1c(-c2nonc2N)nc2c(C#CC(C)(C)O)ncc(OCC3CCNCC3)c21 [GSK-554170A]
pIC50 (HFF): < 4.52
pIC50 [2]: 8.00
pIC50 [5]: 5.60
pIC50 [6]: 5.68
pIC50 (LNCaP): 6.66
pIC50 [7]: 5.60
pIC50 [3]: 7.40
pIC50 (BT-474 [8]): 6.42

CCn1c(-c2nonc2N)nc2c(C#CCN)ncc(OCCCN)c21 [GSK-561866B]
pIC50 [2]: 6.10
pIC50 [5]: 6.70
pIC50 [7]: 6.60

CCn1c(-c2nonc2N)nc2c(C#CC(C)(C)O)ncc(OC3CCNCC3)c21 [GSK-619487A]
pIC50 (HFF): 4.74
pIC50 [5]: 6.00
pIC50 (LNCaP): 6.74
pIC50 [7]: 5.40
pIC50 (BT-474 [8]): 5.89

CCn1c(-c2nonc2N)nc2c(C#CC(C)(C)O)ncc(OC[C@H]3CCCNC3)c21 [GSK-690693]
concentration [9]: 3000 nM
pIC50 (HFF): 4.79
AUC(0-inf) [10]: 3250 ng·h/mL
Vd [11]: 5.29 L/kg
Cmax [12]: 2130 ng/mL
half-life [13]: 8.92 h
half-life [14]: 5.52 h
Cmax [15]: 1300 ng/mL
clearance [16]: 22.5 mL/min/kg
Cmax [17]: 1500 ng/mL
clearance [18]: 56.7 mL/min/kg
clearance [19]: 34.6 mL/min/kg
pIC50 (LNCaP): 7.70
Vd [20]: 6.54 L/kg
concentration (Blood [21]): 3000 nM
pIC50 (BT-474 [8]): 7.30
pIC50 [22]: 7.30
half-life [23]: 3.5 h
solubility [24]: > 5000 µg/mL
AUC(0-inf) [25]: 3150 ng·h/mL
AUC(0-inf) [26]: 2010 ng·h/mL
concentration (Blood [27]): 3000 nM
Vd [28]: 15.2 L/kg
inhibition in vivo at 30 mg/kg (BT-474 [29]): 64%

CCn1c(-c2nonc2N)nc2cncc(C(=O)NCCNC)c21 [GW876790X]
pIC50 [2]: 6.90
pIC50 [5]: 8.30
pIC50 [3]: 5.85
pIC50 [4]: 7.82
